Source: patent US9757368B2, “Anti-inflammatory agents” (Resverlogix Corp., priority 2009, dated 2017)

test system: hIL-6 mRNA; assay: Quantification of hIL-6 mRNA in LPS-stimulated U937 macrophages (real-time PCR); type: cell-based, human; set-up: key: Active: an active compound is one that causes a ≧20% inhibition in IL-6 mRNA at a concentration less than or equal to 10 μM; conditions: U937 cells differentiated with PMA, 1 h pretreatment, LPS 1 μg/mL, 3 h; IL-6 mRNA normalised to hCyclophilin; compound ≤10 μM
Experimental: In this example, hIL-6 mRNA in tissue culture cells was quantitated to measure the transcriptional inhibition of hIL-6 when treated with a compound of the invention.
A human leukemic monocytic lymphoma cell line (U937) was plated (3.2×10^5 cells per well) in a 96-well plate in 100 μL RPMI 1640+10% FBS, and differentiated into macrophages with PMA (60 ng/mL) for 3 days prior to the addition of the compound of interest. The cells were pretreated for 1 h with the test compound in DMSO prior to stimulation with lipopolysaccharide from Escherichia coli at 1 μg/mL. The cells were incubated for 3 h before harvest. At the time of harvest, cells were rinsed in 200 μL PBS. Cell lysis solution (70 μL) was added the cells for 10 min, and mRNA was then prepared using the “mRNA Catcher PLUS plate” (Invitrogen), according to the protocol supplied.
(§1) The eluted mRNA isolated was then used in a one-step quantitative real-time PCR reaction, using components of the UltraSense kit together with Applied Biosystems primer-probe mixes. 10 μL of template was amplified with 1.75 μL of IL-6 primer-probe, and 1 μL of hCyclophilin primer probe, and the reaction was carried out in multiplex. Real-time PCR data was analyzed, normalizing the Ct values for hIL-6 to hCyclophilin, prior to determining the fold induction of each unknown sample, relative to the control.

SMILES	Inhibition of IL-6 expression
COc1cc(OCCN(C)C)c2c(=O)[nH]c(-c3cc(C)c(O)c(C)c3)nc2c1 [Example 1, 5-(2-dimethylamino-ethoxy)-2(4-hydroxy-3,5-dimethylphenyl)-7-methoxy-3H-quinazolin-4-one]	Active
COCCOc1cc(OC)cc2nc(-c3cc(C)c(O)c(C)c3)[nH]c(=O)c12 [Example 2, 2-(4-hydroxy-3,5-dimethyl-phenyl)-7-methoxy-5-(2-methoxy-ethoxy)-3H-quinazolin-4-one]	Active
COc1cc(OCCN)cc2nc(-c3cc(C)c(O)c(C)c3)[nH]c(=O)c12 [Example 3, 7-(2-amino-ethoxy)-2-(4-hydroxy-3,5-dimethyl-phenyl)-5-methoxy-3H-quinazolin-4-one]	Active
COCCOc1cc(OC)c2c(=O)[nH]c(-c3cc(C)c(O)c(C)c3)nc2c1 [Example 4, 2-(4-hydroxy-3,5-dimethyl-phenyl)-5-methoxy-7-(2-methoxy-ethoxy)-3H-quinazolin-4-one]	Active
COc1cc(OCCOCc2ccccc2)cc2nc(-c3cc(C)c(O)c(C)c3)[nH]c(=O)c12 [Example 5, 7-(2-benzyloxy-ethoxy)-2-(4-hydroxy-3,5-dimethyl-phenyl)-5-methoxy-3H-quinazolin-4-one]	Active
COc1cc(OCCOCc2cccnc2)cc2nc(-c3cc(C)c(O)c(C)c3)[nH]c(=O)c12 [Example 6, 2-(4-hydroxy-3,5-dimethylphenyl)-5-methoxy-7-[2-(pyridin-3-ylmethoxy)ethoxy]-3H-quinazolin-4-one]	Active
Cc1cc(-c2nc3ccc(Nc4ccncc4)cc3c(=O)[nH]2)cc(C)c1O [Example 8, 2-(4-hydroxy-3,5-dimethyl-phenyl)-6-(pyridin-4-ylamino)-3H-quinazolin-4-one]	Active
Cc1cc(-c2nc3ccc(CNS(C)(=O)=O)cc3c(=O)[nH]2)cc(C)c1O [Example 11, N-((2-(4-hydroxy-3,5-dimethylphenyl)-4-oxo-3,4-dihydroquinazolin-6-yl)methyl)methanesulfonamide]	Active
Cc1cc(-c2nc3ccc(N4CCOCC4)cc3c(=O)[nH]2)cc(C)c1OCCO [Example 12, 2-(4-(2-hydroxyethoxy)-3,5-dimethylphenyl)-6-morpholinoquinazolin-4(3H)-one]	Active
COc1cc(OC)c2c(=O)[nH]c(-c3cc(C)c(OCCOCc4ccccc4)c(C)c3)nc2n1 [Example 13, 2-(4-(2-(benzyloxy)ethoxy)-3,5-dimethylphenyl)-5,7-dimethoxypyrido[2,3-d]pyrimidin-4(3H)-one]	Active
Cc1cc(C)c2c(=O)[nH]c(-c3cc(C)c(OCCO)c(C)c3)nc2n1 [Example 14, 2-(4-(2-hydroxyethoxy)-3,5-dimethylphenyl)-5,7-dimethylpyrido[2,3-d]pyrimidin-4(3H)-one]	Active
Cc1cc(-c2nc3cc(OC(C)C)cc(OC(C)C)c3c(=O)[nH]2)cc(C)c1OCCO [Example 16, 2-[4-(2-hydroxy-ethoxy)-3,5-dimethyl-phenyl]-5,7-diisopropoxy-3H-quinazolin-4-one]	Active
COc1cc2nc(-c3cc(C)c(OCCO)c(C)c3)[nH]c(=O)c2c(OC)c1CN1CCOCC1.Cl [Example 19, 2-[4-(2-hydroxy-ethoxy)-3,5-dimethylphenyl]-5,7-dimethoxy-6-morpholin-4-ylmethyl-3H-quinazolin-4-one hydrochloride]	Active
COc1cc(OCCOCc2ccccc2)cc2nc(-c3ccc4oc(CO)cc4c3)[nH]c(=O)c12 [Example 24, 7-(2-benzyloxy-ethoxy)-2-(2-hydroxymethyl-benzofuran-5-yl)-5-methoxy-3H-quinazolin-4-one]	Active
COc1cc(OC)c2c(=O)[nH]c(-c3cc(C)c(OCC(=O)NCc4ccccc4)c(C)c3)nc2c1 [Example 27, N-benzyl-2-[4-(5,7-dimethoxy-4-oxo-3,4-dihydroquinazolin-2-yl)-2,6-dimethylphenoxy]acetamide]	Active
COc1cc(OC)c2c(=O)[nH]c(-c3cc(C)c(OCCNC=O)c(C)c3)cc2c1 [Example 41, N-{2-[4-(6,8-dimethoxy-1-oxo-1,2-dihydro-isoquinolin-3-yl)-2,6-dimethyl-phenoxy]-ethyl}-formamide]	Active
COc1cc(OC)c2c(=O)[nH]c(-c3cc(C)c(OCCNS(=O)(=O)C(C)C)c(C)c3)nc2c1 [Example 43, N-(2-(4-(5,7-dimethoxy-4-oxo-3,4-dihydroquinazolin-2-yl)-2,6-dimethylphenoxy)ethyl)propane-2-sulfonamide]	Active
COc1cc(OC)c2c(=O)[nH]c(-c3ccc(OCCNC(C)=O)c(C)c3)nc2c1 [Example 45, N-(2-(4-(5,7-dimethoxy-4-oxo-3,4-dihydroquinazolin-2-yl)-2-methylphenoxy)ethyl)acetamide]	Active
COc1cc(OC)c2c(=O)[nH]c(-c3cc(C)c(OCCN(C)C)c(C)c3)nc2c1 [Example 46, 2-(4-(2-(dimethylamino)ethoxy)-3,5-dimethylphenyl)-5,7-dimethoxyquinazolin-4(3H)-one]	Active
COc1cc(OC)c2c(=O)[nH]c(-c3cc(C)c(OCCNC=O)c(C)c3)nc2c1 [Example 48, N-(2-(4-(5,7-dimethoxy-4-oxo-3,4-dihydroquinazolin-2-yl)-2,6-dimethylphenoxy)ethyl)formamide]	Active
COc1cc(OC)c2c(=O)[nH]c(-c3cc(C)c(OCCN(C)C=O)c(C)c3)nc2c1 [Example 49, N-(2-(4-(5,7-dimethoxy-4-oxo-3,4-dihydroquinazolin-2-yl)-2,6-dimethylphenoxy)ethyl)-N-methylformamide]	Active
COc1cc(OC)c2c(=O)[nH]c(-c3cc(C)c(OCCNS(=O)(=O)N(C)C)c(C)c3)nc2c1 [Example 50, N-(2-(4-(5,7-dimethoxy-4-oxo-3,4-dihydroquinazolin-2-yl)-2,6-dimethylphenoxy)ethyl)dimethylamino-N-sulfonamide]	Active
COc1cc(OC)c2c(=O)[nH]c(-c3cc(C)c(OCCNc4cc(C)on4)c(C)c3)nc2c1 [Example 52, 2-(3,5-dimethyl-4-(2-(5-methylisoxazol-3-ylamino)ethoxy)phenyl)-5,7-dimethoxyquinazolin-4(3H)-one]	Active
COc1cc(OC)c2c(=O)[nH]c(-c3cc(C)c(OCCNc4ncccn4)c(C)c3)nc2c1 [Example 53, 2-(3,5-dimethyl-4-(2-(pyrimidin-2-ylamino)ethoxy)phenyl)-5,7-dimethoxyquinazolin-4(3H)-one]	Active
COc1cc(OC)c2c(=O)[nH]c(-c3cc(C)c(OCCNc4ccon4)c(C)c3)nc2c1 [Example 54, 2-(4-(2-(isoxazol-3-ylamino)ethoxy)-3,5-dimethylphenyl)-5,7-dimethoxyquinazolin-4(3H)-one]	Active
COc1cc(OC)c2c(=O)[nH]c(-c3cc(C)c(OCCNc4nc(OC)cc(OC)n4)c(C)c3)nc2c1 [Example 55, 2-(4-(2-(4,6-dimethoxypyrimidin-2-ylamino)ethoxy)-3,5-dimethylphenyl)-5,7-dimethoxyquinazolin-4(3H)-one]	Active
COc1cc(OC)c2c(=O)[nH]c(-c3cc(OC)c(CCCO)c(OC)c3)nc2c1 [Example 56, 2-[4-(3-hydroxy-propyl)-3,5-dimethoxyphenyl]-5,7-dimethoxy-3H-quinazolin-4-one]	Active
COc1cc(OC)c2c(=O)[nH]c(-c3ccc(CCCO)c(OC)c3)nc2c1 [Example 57, 2-[4-(3-hydroxy-propyl)-3-methoxy-phenyl]-5,7-dimethoxy-3H-quinazolin-4-one]	Active

test system: hVCAM-1 mRNA; assay: Quantification of hVCAM-1 mRNA in TNF-α-stimulated HUV-EC-C cells (real-time PCR); type: cell-based, human; set-up: key: Active: an active compound is one that causes a ≧20% inhibition in VCAM-1 mRNA at a concentration less than or equal to 10 μM; conditions: 1 h pretreatment, TNF-α 10 ng/mL, 24 h, VCAM-1 mRNA normalised to hCyclophilin, compound ≤10 μM
Experimental: In this example, hVCAM-1 mRNA in tissue culture cells was quantitated to measure the transcriptional inhibition of hVCAM when treated with a compound of the invention.
A human umbilical vein endothelial cell line (HUV-EC-C) was plated in a 96-well plate (5.0×10^3 cells/well) in 100 μL EGM complete media and incubated for 24 h prior to the addition of the compound of interest. The cells were pretreated for 1 h with the test compound in DMSO prior to stimulation with tumor necrosis factor-α (10 ng/mL). The cells were incubated for an additional 24 h before harvest. At time of harvest, the cells were rinsed in 200 μL PBS, and cell lysis solution (70 μL) was then added the cells for 10 min. mRNA was then prepared using the “mRNA Catcher PLUS plate” (Invitrogen), according to the protocol supplied.
as §1, with “mRNA” for “mRNA isolated”, “hVCAM-1” for “IL-6”, “hVCAM-1” for “hIL-6”

SMILES	Inhibition of VCAM-1 expression
COc1cc(OCCN)cc2nc(-c3cc(C)c(O)c(C)c3)[nH]c(=O)c12 [Example 3, 7-(2-amino-ethoxy)-2-(4-hydroxy-3,5-dimethyl-phenyl)-5-methoxy-3H-quinazolin-4-one]	Active
COCCOc1cc(OC)c2c(=O)[nH]c(-c3cc(C)c(O)c(C)c3)nc2c1 [Example 4, 2-(4-hydroxy-3,5-dimethyl-phenyl)-5-methoxy-7-(2-methoxy-ethoxy)-3H-quinazolin-4-one]	Active
COc1cc(OCCOCc2ccccc2)cc2nc(-c3cc(C)c(O)c(C)c3)[nH]c(=O)c12 [Example 5, 7-(2-benzyloxy-ethoxy)-2-(4-hydroxy-3,5-dimethyl-phenyl)-5-methoxy-3H-quinazolin-4-one]	Active
